Results taken from patent publication US8853392B2, “Benzamide mGluR5 positive allosteric modulators and methods of making and using same” (Vanderbilt University, priority 2007, dated 2014).
Values joined by “and” are separate entries in the source; they are usually repeats but may differ in a detail not shown here. Identical values can stand only once. “Also recorded” adds a separate entry of the source. Like-named read-outs stand apart in the source and are kept apart here.

Key:
[1] = test system: amphetamine-induced hyperlocomotion; assay: reversal of amphetamine-induced hyperlocomotion; type: in vivo, male Sprague-Dawley rats; settings: rats, i.p., FIG. 8-10, 13, 14
Experimental: For example, compounds of the present invention reverse amphetamine-induced hyperlocomotion in male Sprague-Dawley rats at doses ranging from 1 to 100 mg/kg i.p. Data for three example compounds follow:
Locomotor activity can be assessed as mean distance traveled (cm) in standard 16×16 photocell testing chambers measuring 43.2 cm (L)×43.2 cm (W)×30.5 cm (H) (Med Associates, St. Albans, Vt.). Animals can be habituated to individual activity chambers for at least 60 min prior to drug administration. Following administration of appropriate drugs or vehicle, activity can be recorded for a 3 hr time period. Data can be expressed as the mean (±SEM) distance traveled recorded in 10 min intervals over the test period. The data can be analyzed using repeated measures analysis of variance (ANOVA) followed by post-hoc testing using Tukey's HSD test, when appropriate. A difference can be considered significant when p≦0.05.

[2] = test system: prepulse inhibition (PPI); assay: reversal of amphetamine-induced prepulse inhibition (PPI) of startle; type: in vivo, rats; settings: FIG. 15, 16; four prepulse intensities above background
Excerpt: Schizophrenic patients show decreased measures of sensorimotor gating, such as prepulse inhibition (PPI) of startle, and preclinical models of PPI in rats are routinely used to predict antipsychotic efficacy. In fact, PPI can be measured in humans and rats employing identical stimulus parameters yielding similar responses (Braff, D. L.; Geyer, M. A.; Swerdlow, N. R. ‘Human studies of prepulse inhibition of startle: normal subjects, patient groups, and pharmacological studies.’ Psychopharmacology 2001, 156(2-3), 234-258; Braff, D. L.; Geyer, M. A. ‘Sensorimotor gating and schizophrenia. Human and animal model studies.’ Archives of general psychiatry 1990, 47(2), 181-8; Braff, D. L.; Geyer, M. A.; Swerdlow, N. R. ‘Human studies of prepulse inhibition of startle: normal subjects, patient groups, and pharmacological studies.’ Psychopharmacology 2001, 156(2-3), 234-258; Weiss, I. C.; Feldon, J. ‘Environmental animal models for sensor motor gating deficiencies in schizophrenia: a review.’ Psychopharmacology 2001, 156(2-3), 305-326; Thomsen, M.; Woertwein, G.; Fink-Jensen, A.; Woldbye, D. P. D.; Wess, J.; Caine, S. B. ‘Decreased prepulse inhibition and increased sensitivity to muscarinic, but not dopaminergic drugs in M5 muscarinic acetylcholine receptor knockout mice.’ Psychopharmacology 2007, 192(1), 97-110.). […]

[3] = test system: hippocampal long term potentiation (LTP); assay: hippocampal long term potentiation (LTP); type: cell-based; settings: after applying a stimulus to the synapse, FIG. 17
Excerpt: (§1) mGluR5 potentiation has also been linked to improvement of cognition (Kinney, G. G.; O'Brien, Lemaire, W.; Burno, M.' Bickel, D. J.; Clements, M. K.; Wisnoski, D. D.; Lindsley, C. W.; Tiller, P. R.; Smith, S.; Jacobson, M. A.; Sur, C.; Duggan, M. E.; Pettibone, D. J.; Williams, Jr., D. W. ‘A novel selective allosteric modulator of metabotropic glutamate receptor subtype 5 (mGluR5) has an antipsychotic profile in rat behavioral models’ J. Pharmacol. Exp. Therapeut. 2005, 313(1), 199; Lindsley, C. W.; Wisnoski, D. D.; Leister, W. H.; O'Brien, J. A.; Lemiare, W.; Williams, Jr., D. L.; Burno, M.; Sur, C.; Kinney, G. G.; Pettibone, D. J.; iller, P. R.; Smith, S.; Duggan, M. E.; Hartman, G. D.; Conn, P. J.; Huff, J. R. ‘Discovery of positive allosteric modulators for the metabotropic glutamate receptor subtype from a series of N-(1,3-Diphenyl-1H-pyrazol-5-yl)benzamides that potentiate receptor function in vivo’ J. Med. Chem. 2004, 47, 5825; Epping-Jordan M. P., Nayak, S., Derouet, F., Dominguez, H., Bessis A. S., Le Poul E., Ludwig B. L. Mutel V., Poli S. M. and Rocher J. P. In Vivo Characterization of mGluR5 Positive Allosteric Modulators as Novel Treatments for Schizophrenia and Cognitive Dysfunction Neuropharmacology 2005, 49, 243.). […]

[4] = test system: Novel Object Recognition (NOR); assay: Novel Object Recognition (NOR); type: in vivo; settings: FIG. 11
Excerpt: as §1

rat mGluR5 = target: T1, rat mGluR5 (Rattus norvegicus, UniProt P31424); assay: potentiation of mGluR5 response to glutamate, Ca2+ fluorescence (FDSS) in HEK cells transfected with rat mGluR5; type: cell-based
T1 construct: expressed in transfected cells; host or cells: human embryonic kidney (HEK) cells
T1 sequence (P31424 21-1203): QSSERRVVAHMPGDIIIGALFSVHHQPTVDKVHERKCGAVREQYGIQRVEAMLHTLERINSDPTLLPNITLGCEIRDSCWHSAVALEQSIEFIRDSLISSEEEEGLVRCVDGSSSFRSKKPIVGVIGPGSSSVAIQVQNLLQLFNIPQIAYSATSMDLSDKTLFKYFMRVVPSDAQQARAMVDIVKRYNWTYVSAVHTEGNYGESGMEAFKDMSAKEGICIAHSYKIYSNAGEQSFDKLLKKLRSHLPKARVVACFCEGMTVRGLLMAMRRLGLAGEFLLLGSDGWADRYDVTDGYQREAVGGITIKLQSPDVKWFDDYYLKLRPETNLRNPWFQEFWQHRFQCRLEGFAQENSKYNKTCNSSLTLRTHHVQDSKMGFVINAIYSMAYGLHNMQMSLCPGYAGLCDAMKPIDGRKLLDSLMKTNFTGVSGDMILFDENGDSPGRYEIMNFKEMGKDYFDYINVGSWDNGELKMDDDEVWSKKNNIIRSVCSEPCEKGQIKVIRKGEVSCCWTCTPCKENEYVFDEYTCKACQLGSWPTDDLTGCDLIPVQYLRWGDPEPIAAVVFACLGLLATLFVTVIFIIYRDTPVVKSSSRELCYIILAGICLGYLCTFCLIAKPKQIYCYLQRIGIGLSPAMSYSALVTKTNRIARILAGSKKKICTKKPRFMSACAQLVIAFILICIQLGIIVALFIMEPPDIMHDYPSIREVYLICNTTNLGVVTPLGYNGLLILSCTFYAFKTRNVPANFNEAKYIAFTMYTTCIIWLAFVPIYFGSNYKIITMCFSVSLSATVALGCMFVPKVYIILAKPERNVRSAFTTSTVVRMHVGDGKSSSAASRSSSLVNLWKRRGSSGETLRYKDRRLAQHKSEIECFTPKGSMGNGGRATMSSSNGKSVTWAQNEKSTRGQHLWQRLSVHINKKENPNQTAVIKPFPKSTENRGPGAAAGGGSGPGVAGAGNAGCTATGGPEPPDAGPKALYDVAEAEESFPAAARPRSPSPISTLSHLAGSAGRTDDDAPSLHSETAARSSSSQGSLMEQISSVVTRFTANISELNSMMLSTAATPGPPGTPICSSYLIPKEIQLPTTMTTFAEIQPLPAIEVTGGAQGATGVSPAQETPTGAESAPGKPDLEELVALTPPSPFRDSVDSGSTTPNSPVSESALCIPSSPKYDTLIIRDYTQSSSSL
How it was run: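 HEK cells expressing rat mGluR5, loaded with 2 μM fluo-4 AM; buffer HBSS, 20 mM HEPES, 2.5 mM probenecid, pH 7.4, 0.1% DMSO final. Compound added 5 min before glutamate, typically at EC20, with Ca2+ fluorescence read over 1 min and normalized to maximal agonist response. Potentiator EC50 from curve fitting; agonist curve shifts measured at fixed compound concentrations.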

[5] = Table 1, EC50 for potentiating the mGluR5 receptor, unit inferred, read-out: EC50

In the case of `O=C(c1ccc(F)cc1)N1CCC[C@H](c2nc(-c3ccc(F)cc3)no2)C1` [ADX47273], the “reversal of amphetamine-induced hyperlocomotion” value [1] is reported as “afforded similar results; also recorded: reversal of amphetamine-induced hyperlocomotion”, the “reversal of amphetamine-induced prepulse inhibition (PPI)” value [2] is reported as “affords similar results; also recorded: reversal of amphetamine-induced prepulse inhibition (PPI)” and the “increase in strength of synaptic connections (hippocampal LTP)” value [3] is reported as “induced a robust increase in synaptic connections”. The “improvement in Novel Object Recognition (NOR)” value [4] was “robust and significant improvement in NOR; also recorded: cognitive improvement”.

In the case of `O=C(c1ccc(C#Cc2ccccc2)cc1)N1CCC(CO)CC1` [Compound VU14/C104B2, (4-(hydroxymethyl)piperidin-1-yl)(4-(phenylethynyl)phenyl)methanone], the Emax (rat mGluR5; HEK293, read-out: % Glu Max) is reported as 41%, the EC50 (rat mGluR5; [5]) is reported as 32.7 nM and 43.4 nM and the EC50 (rat mGluR5; in vitro potency, read-out: In vitro) is reported as 29.6 nM. The “reversal of amphetamine-induced hyperlocomotion” value [1] was “efficacy in reversing amphetamine-induced hyperlocomotion; also recorded: in vivo efficacy”.

For `O=C(Nc1cc(-c2ccccc2)nn1-c1ccccc1)c1ccc([N+](=O)[O-])cc1` [VU29], the “increase in strength of synaptic connections (hippocampal LTP)” value [3] was “induced a robust increase in synaptic connections”.

With “(4-hydroxypiperidin-1-yl)(4-(phenylethynyl)phenyl)methanone [Compound VU13]” the EC50 (rat mGluR5; [5]) was 28.3 nM, the “reversal of amphetamine-induced hyperlocomotion” value ([1]; listed as VU000013) was “affords similar results” and the “reversal of amphetamine-induced hyperlocomotion” value ([1]; listed as VU00013) was “reversal of amphetamine-induced hyperlocomotion”.
